Values after ≈ are worked out from the molar mass of the structure shown. Read-outs that look alike come from different tables or passages of the source.
How the values were obtained:
[1] = Solubility in Japanese Pharmacopeia First Fluid (JP1) and Second Fluid (JP2); type: physicochemical; conditions: thermodynamic from solid, room temperature
Procedure: A 10 mmol/L solution of the test compound was prepared in DMSO and dispensed 100 μL of 10 mmol/L DMSO stock solutions into labeled glass tubes in duplicate, one for Japanese Pharmacopeia First Fluid (JP1) and second for Japanese Pharmacopeia Second Fluid (JP2). After evaporation of DMSO from each tube, 500 μL of JP1 and JP2 fluid were added in each tube, respectively. These tubes were sonicated for 1 minute and placed on shaker for 30 minutes with an interval of 30 seconds at every 5 minute. Tubes were placed in dark at room temperature for 1 hour and solution was filtered through membrane filter. The filtrate was diluted 2-fold and 10-fold. The resulting test solutions was analyzed and quantified against the standards using UPLC (standard preparation-10 mmol/L solution in DMSO is serially diluted with 50% aqueous acetonitrile solution to prepare 2 solutions; 100 μmol/L standard solution and 5 μmol/L standard solution).

[2] = biological target: recombinant PI3K δ enzyme (Homo sapiens (Human), UniProt O00329); assay: In vitro enzyme assay (Kinase-Glo luminescent kinase assay), PI3Kδ; type: biochemical
Method in brief: (§1)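 Each recombinant human PI3K isoform at 2.29 μg/mL with 60 μM PIP2 and 10 μM ATP in HEPES pH 7.4, NaCl, CHAPS, MgCl2, DTT, 2 hours at room temperature. Remaining ATP read by Kinase-Glo luminescence relative to no-enzyme blanks.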

[3] = biological target: PI3Kα (Homo sapiens (Human), UniProt P42336); assay: In vitro enzyme assay (Kinase-Glo), selectivity, PI3Kα; type: biochemical; conditions: enzyme 2.29 μg/mL; ATP 10 μM; PIP2 60 μM; 2 hours
Method in brief: as §1

[4] = test system: eosinophil count in bronchoalveolar lavage fluid; assay: Ovalbumin-induced airway eosinophilia model in Brown Norway rats; type: in vivo; conditions: oral; for ED50: bid, absolute eosinophil count in BAL fluid
Procedure: The protocols were followed in similar fashion as described in Clin. Exp. Immunol., 2001; 126:9-15 and J. Pharmacol. Exp. Ther., 2011; 337:145-54. Male Brown Norway rats were sensitized by intraperitoneal injection of a suspension of 1 mg of ovalbumin and 100 mg of aluminum hydroxide (in sterile 0.9% saline) on day 0 and 7. On day 14, the compounds were administered to the rats by oral gavage. One hour after oral administration, the animals were placed into a perspex chamber and exposed to an aerosol of 5% ovalbumin for ten minutes. Compounds were administered on Day 14 and Day 15 either once or twice daily. Forty-eight hours after ovalbumin challenge, the animals were euthanized and bronchoalveolar lavage fluid was collected. The cell suspensions were processed and absolute eosinophil count was enumerated.

[5] = test system: IFN-γ release in mouse splenocytes; assay: Phytohaemagglutinin (PHA)-induced interferon (IFN)-gamma release in mouse splenocytes; design: species or system C57BL/6 mouse; conditions: Splenocyte, PHA (10 μg/ml) for 48 hours, IFN-γ by ELISA, read-out: Cell Based IC50
[6] = biological target: PI3Kγ (Homo sapiens (Human), UniProt P48736); assay: In vitro enzyme assay (Kinase-Glo), selectivity, PI3Kγ; type: biochemical; conditions: enzyme 2.29 μg/mL; ATP 10 μM; PIP2 60 μM; 2 hours
[7] = test system: eosinophil count in bronchoalveolar lavage fluid; assay: House dust mite (HDM) induced chronic asthma model in Balb/c mice; type: in vivo; conditions: oral twice daily from week 3 to week 5; absolute eosinophil count in BAL fluid
Procedure: The protocol was followed as described in Am. J. Respir. Crit. Care Med., 2004; 169: 378-385. Female Balb/c mice were exposed to purified HDM (Dermatophagoides pteronyssinus) extract, intranasally (25 μg of protein in 20 μl of saline) for 5 days/week for up to five consecutive weeks. Compounds were administered orally twice daily from week 3 to week 5. Forty-eight hours after last HDM exposure, the animals were euthanized and bronchoalveolar lavage fluid was collected. The cell suspensions were processed and absolute eosinophil count was enumerated.

[8] = biological target: PI3Kβ (Homo sapiens (Human), UniProt P42338); assay: In vitro enzyme assay (Kinase-Glo), selectivity, PI3Kβ; type: biochemical; conditions: enzyme 2.29 μg/mL; ATP 10 μM; PIP2 60 μM; 2 hours
Method in brief: as §1

[9] = pH 1.2, simulated gastric fluid, Japanese Pharmacopeia First Fluid (JP1), read-out: Solubility JP1
[10] = pH 6.8, aqueous buffer, Japanese Pharmacopeia Second Fluid (JP2), read-out: Solubility JP2
[11] = enzyme 2.29 μg/mL, ATP 10 μM, PIP2 60 μM, 2 hours

Chain of PI3Kα (P42336 whole entry, species assumed): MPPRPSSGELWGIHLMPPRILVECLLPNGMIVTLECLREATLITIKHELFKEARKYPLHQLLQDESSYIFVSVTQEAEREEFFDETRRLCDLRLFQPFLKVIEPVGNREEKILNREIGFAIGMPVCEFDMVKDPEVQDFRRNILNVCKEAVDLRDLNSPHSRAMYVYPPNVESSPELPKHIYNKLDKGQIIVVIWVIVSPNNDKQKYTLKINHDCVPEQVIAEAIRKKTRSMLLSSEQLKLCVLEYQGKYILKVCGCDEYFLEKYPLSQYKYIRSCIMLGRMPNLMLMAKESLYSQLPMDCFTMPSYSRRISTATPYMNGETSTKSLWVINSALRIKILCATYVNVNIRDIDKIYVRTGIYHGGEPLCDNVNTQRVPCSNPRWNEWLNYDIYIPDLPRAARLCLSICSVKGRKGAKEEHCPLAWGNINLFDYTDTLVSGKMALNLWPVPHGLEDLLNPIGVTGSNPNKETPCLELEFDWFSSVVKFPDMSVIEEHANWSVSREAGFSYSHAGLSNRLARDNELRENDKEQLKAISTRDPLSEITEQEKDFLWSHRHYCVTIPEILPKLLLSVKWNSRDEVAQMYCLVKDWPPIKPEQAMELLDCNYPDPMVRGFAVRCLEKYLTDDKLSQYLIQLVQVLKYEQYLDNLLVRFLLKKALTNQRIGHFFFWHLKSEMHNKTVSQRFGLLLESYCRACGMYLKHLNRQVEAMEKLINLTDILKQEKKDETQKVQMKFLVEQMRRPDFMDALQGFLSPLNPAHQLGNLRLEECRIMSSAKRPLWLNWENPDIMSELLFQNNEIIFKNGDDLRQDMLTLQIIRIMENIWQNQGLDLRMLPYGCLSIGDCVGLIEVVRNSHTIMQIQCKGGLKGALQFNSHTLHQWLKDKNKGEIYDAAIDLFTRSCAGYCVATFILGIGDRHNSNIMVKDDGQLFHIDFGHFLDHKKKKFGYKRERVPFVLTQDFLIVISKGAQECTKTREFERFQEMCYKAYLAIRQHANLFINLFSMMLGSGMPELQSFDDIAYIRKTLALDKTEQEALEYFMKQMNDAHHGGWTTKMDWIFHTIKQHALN
Chain of PI3Kα (P27986 whole entry partner, species assumed): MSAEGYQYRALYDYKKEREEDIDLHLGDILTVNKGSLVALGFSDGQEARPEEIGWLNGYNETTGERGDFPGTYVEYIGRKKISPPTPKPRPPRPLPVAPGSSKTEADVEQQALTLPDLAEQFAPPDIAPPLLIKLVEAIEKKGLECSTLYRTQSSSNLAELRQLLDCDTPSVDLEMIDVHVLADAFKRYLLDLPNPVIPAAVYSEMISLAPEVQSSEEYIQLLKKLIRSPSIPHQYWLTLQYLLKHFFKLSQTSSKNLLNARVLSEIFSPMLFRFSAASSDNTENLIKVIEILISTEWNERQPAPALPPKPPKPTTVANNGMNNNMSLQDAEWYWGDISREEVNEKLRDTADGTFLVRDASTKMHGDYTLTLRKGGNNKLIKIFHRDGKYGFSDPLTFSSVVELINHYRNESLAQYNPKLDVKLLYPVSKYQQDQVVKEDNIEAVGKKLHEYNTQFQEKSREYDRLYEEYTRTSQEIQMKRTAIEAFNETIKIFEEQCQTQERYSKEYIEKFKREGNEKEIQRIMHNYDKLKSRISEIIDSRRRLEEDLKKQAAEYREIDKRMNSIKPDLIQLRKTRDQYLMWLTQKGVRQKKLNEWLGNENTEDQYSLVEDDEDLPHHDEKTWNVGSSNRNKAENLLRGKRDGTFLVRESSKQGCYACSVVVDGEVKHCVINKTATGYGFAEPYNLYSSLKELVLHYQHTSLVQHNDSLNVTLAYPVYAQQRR
Chain of PI3Kγ (P48736 whole entry, species assumed): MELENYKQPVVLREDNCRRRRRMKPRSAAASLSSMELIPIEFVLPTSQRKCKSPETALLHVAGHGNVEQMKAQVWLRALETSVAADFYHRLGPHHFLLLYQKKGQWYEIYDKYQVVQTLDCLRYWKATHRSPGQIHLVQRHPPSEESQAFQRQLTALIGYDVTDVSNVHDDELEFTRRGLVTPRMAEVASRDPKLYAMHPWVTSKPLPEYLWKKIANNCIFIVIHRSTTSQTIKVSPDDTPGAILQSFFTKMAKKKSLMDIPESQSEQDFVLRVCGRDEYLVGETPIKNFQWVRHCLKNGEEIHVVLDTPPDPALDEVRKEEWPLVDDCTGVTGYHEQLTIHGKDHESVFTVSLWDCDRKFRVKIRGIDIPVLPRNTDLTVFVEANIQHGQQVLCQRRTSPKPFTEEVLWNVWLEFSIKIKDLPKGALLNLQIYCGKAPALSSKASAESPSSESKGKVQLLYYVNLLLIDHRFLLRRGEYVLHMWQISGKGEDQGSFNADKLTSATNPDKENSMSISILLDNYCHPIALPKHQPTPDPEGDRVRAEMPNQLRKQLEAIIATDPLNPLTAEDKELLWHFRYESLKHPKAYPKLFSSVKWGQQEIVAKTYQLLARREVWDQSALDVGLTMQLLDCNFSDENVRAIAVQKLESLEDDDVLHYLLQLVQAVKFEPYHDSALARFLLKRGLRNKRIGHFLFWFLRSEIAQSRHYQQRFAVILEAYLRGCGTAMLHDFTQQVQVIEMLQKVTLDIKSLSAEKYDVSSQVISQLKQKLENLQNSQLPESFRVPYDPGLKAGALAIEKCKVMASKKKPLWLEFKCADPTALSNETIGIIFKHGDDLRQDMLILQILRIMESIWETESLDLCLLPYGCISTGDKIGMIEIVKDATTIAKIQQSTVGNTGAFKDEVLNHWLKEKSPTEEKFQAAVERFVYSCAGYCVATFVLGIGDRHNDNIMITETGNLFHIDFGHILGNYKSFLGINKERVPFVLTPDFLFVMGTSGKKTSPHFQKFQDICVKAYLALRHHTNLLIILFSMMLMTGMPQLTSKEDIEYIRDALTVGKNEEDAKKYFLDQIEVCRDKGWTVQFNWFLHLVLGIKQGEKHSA
Chain of PI3Kβ (P42338 whole entry, species assumed): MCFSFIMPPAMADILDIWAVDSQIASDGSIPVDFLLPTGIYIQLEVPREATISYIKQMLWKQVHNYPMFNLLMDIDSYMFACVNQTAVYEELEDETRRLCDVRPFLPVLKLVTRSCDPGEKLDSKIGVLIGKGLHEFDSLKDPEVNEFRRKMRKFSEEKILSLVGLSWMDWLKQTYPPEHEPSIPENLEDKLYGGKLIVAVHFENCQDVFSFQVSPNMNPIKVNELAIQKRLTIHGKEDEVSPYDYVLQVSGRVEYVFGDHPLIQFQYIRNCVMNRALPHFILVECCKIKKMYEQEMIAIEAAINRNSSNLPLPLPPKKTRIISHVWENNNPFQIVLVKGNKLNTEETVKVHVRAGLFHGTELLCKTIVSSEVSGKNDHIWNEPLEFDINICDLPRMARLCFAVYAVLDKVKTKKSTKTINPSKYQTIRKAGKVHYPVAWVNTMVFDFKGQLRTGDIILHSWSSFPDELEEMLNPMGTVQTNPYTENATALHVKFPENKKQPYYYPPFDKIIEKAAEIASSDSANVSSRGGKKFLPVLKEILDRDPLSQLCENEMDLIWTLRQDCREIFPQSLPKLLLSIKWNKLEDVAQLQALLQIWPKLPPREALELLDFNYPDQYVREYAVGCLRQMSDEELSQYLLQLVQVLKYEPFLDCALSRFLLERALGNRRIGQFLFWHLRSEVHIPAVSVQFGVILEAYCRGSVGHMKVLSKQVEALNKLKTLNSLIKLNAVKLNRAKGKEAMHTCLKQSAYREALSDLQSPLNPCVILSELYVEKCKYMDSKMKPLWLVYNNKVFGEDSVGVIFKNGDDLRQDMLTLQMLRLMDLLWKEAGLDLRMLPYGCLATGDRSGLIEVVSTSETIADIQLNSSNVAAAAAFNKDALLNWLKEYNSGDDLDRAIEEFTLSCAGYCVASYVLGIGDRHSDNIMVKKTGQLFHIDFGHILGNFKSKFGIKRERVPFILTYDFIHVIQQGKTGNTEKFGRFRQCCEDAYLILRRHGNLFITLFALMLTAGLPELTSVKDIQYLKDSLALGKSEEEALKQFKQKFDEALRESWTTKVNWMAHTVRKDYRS
Chain of PI3Kβ (P27986 whole entry partner, species assumed): as the sequence (P27986 whole entry partner, species assumed) above
Chain of recombinant PI3K δ enzyme (O00329 whole entry, species assumed, canonical isoform): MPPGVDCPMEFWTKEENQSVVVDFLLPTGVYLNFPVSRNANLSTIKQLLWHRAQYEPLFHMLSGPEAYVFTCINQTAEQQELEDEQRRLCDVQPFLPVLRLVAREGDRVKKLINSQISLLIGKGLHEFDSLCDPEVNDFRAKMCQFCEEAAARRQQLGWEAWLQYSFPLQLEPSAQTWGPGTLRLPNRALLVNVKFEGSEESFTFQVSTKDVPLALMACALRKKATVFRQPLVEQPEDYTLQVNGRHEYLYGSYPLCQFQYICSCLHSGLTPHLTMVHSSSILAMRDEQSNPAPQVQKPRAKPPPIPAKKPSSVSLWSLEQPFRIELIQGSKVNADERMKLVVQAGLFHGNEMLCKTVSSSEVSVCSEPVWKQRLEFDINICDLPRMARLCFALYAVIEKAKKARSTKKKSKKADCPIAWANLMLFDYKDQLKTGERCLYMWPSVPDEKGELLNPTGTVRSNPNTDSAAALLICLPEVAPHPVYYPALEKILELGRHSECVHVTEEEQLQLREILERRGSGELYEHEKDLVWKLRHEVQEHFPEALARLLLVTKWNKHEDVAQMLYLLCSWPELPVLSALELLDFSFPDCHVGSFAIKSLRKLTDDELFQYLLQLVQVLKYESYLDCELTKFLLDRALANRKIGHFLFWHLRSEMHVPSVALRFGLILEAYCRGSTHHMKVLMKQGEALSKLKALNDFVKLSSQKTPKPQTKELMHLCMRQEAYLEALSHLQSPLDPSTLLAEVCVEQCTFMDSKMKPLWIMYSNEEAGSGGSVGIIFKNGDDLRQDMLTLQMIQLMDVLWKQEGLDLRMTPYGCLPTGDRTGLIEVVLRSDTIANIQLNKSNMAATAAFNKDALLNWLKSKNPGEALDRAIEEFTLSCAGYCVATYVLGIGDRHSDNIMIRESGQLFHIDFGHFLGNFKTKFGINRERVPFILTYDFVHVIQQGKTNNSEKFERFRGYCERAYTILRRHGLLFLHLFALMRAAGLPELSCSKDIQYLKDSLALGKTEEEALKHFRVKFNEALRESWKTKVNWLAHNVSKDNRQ
Chain of recombinant PI3K δ enzyme (P27986 whole entry partner, species assumed, canonical isoform): as the sequence (P27986 whole entry partner, species assumed) above

Question: What does the source list for `Cn1cc(-c2nc(N3CCOCC3)c3nc(C(=O)N4CCC(N5CCOCC5)CC4)[nH]c3n2)cn1` [Compound No. 58, [2-(1-methyl-1H-pyrazol-4-yl)-6-(morpholin-4-yl)-9H-purin-8-yl][4-(morpholin-4-yl)piperidin-1-yl]methanone]?
Answer: solubility at 30 min [1, 9]: > 1200 µg/mL; solubility at 30 min [1, 10]: 170 µg/mL (≈ 353 µM); IC50 [2]: 14 nM; IC50 [2, 11]: 14 nM; IC50 [3]: > 1000 nM; ED50 [4]: 0.3 mg/kg, bid; IC50 [5]: 6 nM; IC50 [6]: > 1000 nM; ED50 [7]: 0.1 mg/Kg, bid; IC50 [8]: > 10000 nM

Question: Which solubility at 30 min [1, 9] does the source give for `C[C@@H]1CN(C2CCN(C(=O)c3nc4c(N5CCOCC5)nc(-c5cnn(C)c5)nc4[nH]3)CC2)C[C@H](C)O1` [compound 5, {4-[cis-2,6-Dimethylmorpholin-4-yl]piperidin-1-yl}[2-(1-methyl-1H-pyrazol-4-yl)-6-(morpholin-4-yl)-9H-purin-8-yl]methanone] here?
Answer: Its solubility at 30 min is 834 µg/mL (≈ 1640 µM).

Question: What about the solubility at 30 min [1, 10] of the same compound?
Answer: The solubility at 30 min was 286 µg/mL (≈ 561 µM).

Question: And the IC50 [3]?
Answer: The IC50 was greater than 1000 nM.

Question: And the IC50 [5]?
Answer: Its IC50 is 111 nM.

Question: What about the IC50 [6] of the same compound?
Answer: The IC50 was 1180 nM.

Question: What about the ED50 [7] of the same compound?
Answer: Its ED50 is 1.6 mg/Kg, bid.

Question: For `Cn1cc(-c2cc(N3CCOCC3)c3nc(C(=O)N4CCC5(CC4)COC5)[nH]c3n2)cn1` [compound 78, [5-(1-Methyl-1H-pyrazol-4-yl)-7-(morpholin-4-yl)-3H-imidazo[4,5-b]pyridin-2-yl](2-oxa-7-azaspiro[3.5]non-7-yl)methanone], which IC50 [2] is on record?
Answer: Its IC50 is 13 nM.

Question: What about the IC50 [2, 11] of the same compound?
Answer: Its IC50 is 13 nM.

Question: What about the IC50 [3] of the same compound?
Answer: Its IC50 is 2190 nM.

Question: And the “Percent inhibition of BAL eosinophil count at 3 mg/kg” value ([4]; @ 3 mg/Kg, ovalbumin challenge)?
Answer: Its value is 45%.

Question: What about the IC50 [5] of the same compound?
Answer: Its IC50 is 28 nM.

Question: And the IC50 [6]?
Answer: Its IC50 is 640 nM.

Question: And the IC50 [8]?
Answer: The IC50 was greater than 10000 nM.

Question: Which results are given for `Cc1nn(C)cc1-c1nc2c(nc(C(=O)N3CCC(N4CCOCC4)CC3)n2C)c(N2CCOCC2)c1F` [compound 87, [5-(1,3-Dimethyl-1H-pyrazol-4-yl)-6-fluoro-3-methyl-7-(morpholin-4-yl)-3H-imidazo[4,5-b]pyridin-2-yl][4-(morpholin-4-yl)piperidin-1-yl]methanone]?
Answer: IC50 [2]: 3 nM; IC50 [2, 11]: 3 nM; IC50 [3]: > 10000 nM; ED50 [4]: 0.8 mg/kg, bid; IC50 [5]: 47 nM; IC50 [6]: > 10000 nM; IC50 [8]: > 10000 nM

Question: What does the source list for `Cc1nn(C)cc1-c1nc2[nH]c(C(=O)N3CCC(N4CCOCC4)CC3)nc2c(N2CCOCC2)c1F` [compound 96, [5-(1,3-Dimethyl-1H-pyrazol-4-yl)-6-fluoro-7-(morpholin-4-yl)-3H-imidazo[4,5-b]pyridin-2-yl][4-(morpholin-4-yl)piperidin-1-yl]methanone]?
Answer: solubility at 30 min [1, 9]: > 1020 µg/mL; solubility at 30 min [1, 10]: 424 µg/mL (≈ 827 µM); IC50 [2]: 3 nM; ED50 [4]: 2.5 mg/kg, bid

Reference: patent publication US10174035B2, “6-morpholinyl-2-pyrazolyl-9H-purine derivatives and their use as PI3K inhibitors” (Daiichi Sankyo Company, Limited, priority 2015, dated 2019)
